Source: EP4635500A1, “THERAPEUTIC AGENT FOR BACTERIAL INFECTION” (Sumitomo Pharma Co., Ltd., priority 2022, dated 2024)
Converted amounts (≈) assume the structure as drawn.

Columns and labels:
Type in all cases: cell-based
[1] = test system: A. baumannii; assay: MIC, broth microdilution, 6 strains (Example 6, Table 7)
[2] = test system: Enterobacterales; assay: MIC, broth microdilution, CDC/FDA Antibiotic Resistance Isolate Bank (Example 7, Tables 8, 11, 12)
[3] = test system: P. aeruginosa; assay: MIC, broth microdilution, CDC/FDA Antibiotic Resistance Isolate Bank (Example 7, Tables 10, 15)

In the case of Colistin sulfate, the MIC ([1]; A. baumannii strain with AMR gene ADC-25, OXA-23, OXA-66, TEM-ID, Carbapenem-resistant) is reported as 1 µg/mL, the MIC ([1]; A. baumannii strain with AMR gene ADC-25, OXA-66, TEM-1D, Carbapenem-susceptible) is reported as 2 µg/mL and the MIC ([1]; A. baumannii strain with AMR gene ADC-25, XA-23, OXA-66, strA, strB, sul2, TEM-1D, Carbapenem-resistant) is reported as 1 µg/mL. The MIC ([1]; A. baumannii strain with AMR gene NDM-1, OXA-64, Carbapenem-resistant) was 1 µg/mL, the MIC ([1]; A. baumannii strain with AMR gene OXA-23, OXA-69, TEM-1D, Carbapenem-resistant) was 1 µg/mL and the MIC ([1]; A. baumannii strain with AMR gene OXA-24, OXA-65, Carbapenem-resistant) was 1 µg/mL.

`C[C@H]1COc2c(N3CCN(C)CC3)c(F)cc3c(=O)c(C(=O)O)cn1c23` [Levoflexacin] showed an MIC ([2]; Enterobacter aerogenes, KUB No. 5559, AR Bank # 62) of 2 µg/mL (≈ 5.53 µM), an MIC ([2]; Enterobacter aerogenes, KUB No. 5571, AR Bank # 74) of 0.12 µg/mL (≈ 0.332 µM) and an MIC ([2]; Enterobacter cloacae, KUB No. 5562, AR Bank # 65) of 0.12 µg/mL (≈ 0.332 µM). It also gave an MIC ([2]; Enterobacter cloacae, KUB No. 5569, AR Bank # 72) of 0.5 µg/mL (≈ 1.38 µM), an MIC ([2]; Enterobacter cloacae, KUB No. 5570, AR Bank # 73) of 0.25 µg/mL (≈ 0.692 µM) and an MIC ([2]; Enterobacter cloacae, KUB No. 5590, AR Bank # 93) of 4 µg/mL (≈ 11.1 µM). For the same compound, the MIC ([2]; Escherichia coli, KUB No. 5558, AR Bank # 61) was 0.12 µg/mL (≈ 0.332 µM), the MIC ([2]; Escherichia coli, KUB No. 5564, AR Bank # 67) was 32 µg/mL (≈ 88.6 µM) and the MIC ([2]; Escherichia coli, KUB No. 5566, AR Bank # 69) was 0.12 µg/mL (≈ 0.332 µM). The MIC ([2]; Escherichia coli, KUB No. 5574, AR Bank # 77) was 0.06 µg/mL (≈ 0.166 µM), the MIC ([2]; Escherichia coli, KUB No. 5578, AR Bank # 81) was 32 µg/mL (≈ 88.6 µM) and the MIC ([2]; Escherichia coli, KUB No. 5581, AR Bank # 84) was 64 µg/mL (≈ 177 µM). For the same compound, the MIC ([2]; Escherichia coli, KUB No. 5582, AR Bank # 85) was 32 µg/mL (≈ 88.6 µM), the MIC ([2]; Escherichia coli, KUB No. 5583, AR Bank # 86) was 8 µg/mL (≈ 22.1 µM) and the MIC ([2]; Escherichia coli, KUB No. 5586, AR Bank # 89) was 0.12 µg/mL (≈ 0.332 µM). The MIC ([2]; Klebsiella oxytoca, KUB No. 5568, AR Bank # 71) was 0.5 µg/mL (≈ 1.38 µM), the MIC ([2]; Klebsiella ozaenae, KUB No. 5593, AR Bank # 96) was 32 µg/mL (≈ 88.6 µM) and the MIC ([2]; Klebsiella pneumoniae, KUB No. 5563, AR Bank # 66) was 64 µg/mL (≈ 177 µM). For the same compound, the MIC ([2]; Klebsiella pneumoniae, KUB No. 5565, AR Bank # 68) was 64 µg/mL (≈ 177 µM), the MIC ([2]; Klebsiella pneumoniae, KUB No. 5572, AR Bank # 75) was >64 µg/mL and the MIC ([2]; Klebsiella pneumoniae, KUB No. 5573, AR Bank # 76) was 1 µg/mL (≈ 2.77 µM). For the same compound, the MIC ([2]; Klebsiella pneumoniae, KUB No. 5576, AR Bank # 79) was 64 µg/mL (≈ 177 µM), the MIC ([2]; Klebsiella pneumoniae, KUB No. 5577, AR Bank # 80) was 0.12 µg/mL (≈ 0.332 µM) and the MIC ([2]; Klebsiella pneumoniae, KUB No. 5584, AR Bank # 87) was >64 µg/mL. For the same compound, the MIC ([2]; Klebsiella pneumoniae, KUB No. 5594, AR Bank # 97) was >64 µg/mL, the MIC ([2]; Klebsiella pneumoniae, KUB No. 5595, AR Bank # 98) was 64 µg/mL (≈ 177 µM) and the MIC ([2]; Providencia rettgeri, KUB No. 5579, AR Bank # 82) was 0.25 µg/mL (≈ 0.692 µM). For the same compound, the MIC ([2]; Serratia marcescens, KUB No. 5588, AR Bank # 91) was 0.25 µg/mL (≈ 0.692 µM).

With `O=C(O)c1cn(C2CC2)c2cc(N3CCNCC3)c(F)cc2c1=O` [Ciyprofloxacin] the MIC ([3]; P. aeruginosa KUB No. 5681, AR Bank # 248) was 8 µg/mL (≈ 24.1 µM), the MIC ([3]; P. aeruginosa KUB No. 5684, AR Bank # 251) was 4 µg/mL (≈ 12.1 µM) and the MIC ([3]; P. aeruginosa KUB No. 5685, AR Bank # 252) was 8 µg/mL (≈ 24.1 µM). The MIC ([3]; P. aeruginosa KUB No. 5694, AR Bank # 261) was 2 µg/mL (≈ 6.04 µM), the MIC ([3]; P. aeruginosa KUB No. 5695, AR Bank # 262) was 0.5 µg/mL (≈ 1.51 µM) and the MIC ([3]; P. aeruginosa KUB No. 5696, AR Bank # 263) was 1 µg/mL (≈ 3.02 µM). The MIC ([3]; P. aeruginosa KUB No. 5700, AR Bank # 267) was 8 µg/mL (≈ 24.1 µM), the MIC ([3]; P. aeruginosa KUB No. 5701, AR Bank # 268) was 4 µg/mL (≈ 12.1 µM) and the MIC ([3]; P. aeruginosa KUB No. 5703, AR Bank # 270) was 8 µg/mL (≈ 24.1 µM).
